From patent US20210000904A1, “NOVEL USE OF MAYDIS STIGMA EXTRACT IN PROPHYLAXIS AND THERAPY OF SLEEP DISORDER” (KONKUK UNIVERSITY GLOBAL INDUSTRY-ACADEMIC COLLABORATION …, priority 2018, published 2021)

System: ICR mice
Experiment: Caffeine sleep deprivation model with pentobarbital-induced sleep
Format: in vivo, mouse
Details: caffeine 10 mg/kg i.p., pentobarbital 42 mg/kg after 30 minutes

Structure (SMILES): Cn1c(=O)c2c(ncn2C)n(C)c1=O [caffeine]
- sleep duration decrease compared to negative control group: 1,000 seconds
- sleep onset time increase compared to negative control group: about 50 seconds
